In experiment [1] the test system is Trichophyton rubrum (T. rubrum) ATCC10218. The experiment is described as follows: Antifungal activity against dermatophytes (MIC, WST8). It counts as cell-based. The settings on record: 80% growth inhibiting concentration; RPMI1640/MOPS, 28° C., 4 days, 1% DMSO. As to the method: (§1) Measurement of the antifungal activity against dermatophytes of the compound of the formula (I) contained in the topical liquid agent of the present invention was carried out by the following method. The compound to be evaluated was used by dissolving in dimethyl sulfoxide (DMSO). As a medium for the test, RPMI1640 medium containing 0.165M of 3-morpholinopropanesulfonic acid (MOPS) was used. As fungi to be tested, Trichophyton mentagrophytes (T. mentagrophytes) ATCC18748 or Trichophyton rubrum (T. rubrum) ATCC10218 was used. The testing fungal strain was apportioned to […] with a concentration of 1×10^4 conidia/ml, mixed with a compound to be evaluated on a 96-well half area plate so that the DMSO concentration became 1%, and cultured at a cultivation temperature of 28° C. for 3 days (T. mentagrophytes) or 4 days (T. rubrum). Thereafter, 5 μl of Cell Counting Kit 8 (WST8) was added thereto, and absorbances at 450 nm and 595 nm were measured to use these as background values. Thereafter, these were cultivated at 28° C. for 5 hours (T. mentagrophytes) or overnight (T. rubrum) to cause a color, and absorbances at 450 nm and 595 nm were measured again. A growth inhibiting rate was calculated from the difference to the background values, and a 80% growth inhibiting concentration was made an MIC value […].
On the technique in general: Formazan colour is commonly taken as a measure of viable cells.

The subject of experiment [2] is Trichophyton mentagrophytes (T. mentagrophytes) ATCC18748. Described as above. The format is cell-based. The settings on record: 80% growth inhibiting concentration; RPMI1640/MOPS, 28° C., 3 days, 1% DMSO. As to the method: as §1

Regarding `Cc1cc(C)n(-c2ccccc2O)n1` [compound 1], in experiment [1], the “MIC (T. rubrum)” value is recorded as “B (4 to 16 μg/ml)”. For `Cc1cc(C(F)(F)F)nn1-c1ccccc1O` [compound 5], in experiment [1], the “MIC (T. rubrum)” value is reported as “D (>32 to 64 μg/ml)”. `Cc1nn(-c2ccccc2O)c(C)c1C` [compound 9]: the “MIC (T. mentagrophytes)” value in experiment [2] is “A (≦1 μg/ml)”. Further, the “MIC (T. rubrum)” value in experiment [1] was “A (≦2 μg/ml)”. Take `Cc1cc(C)n(-c2cc(Cl)ccc2O)n1` [compound 11]: the “MIC (T. rubrum)” value in experiment [1] was “D (>32 to 64 μg/ml)”. On to `Cc1nn(-c2ccccc2O)c(C)c1Cl` [compound 13], for which the “MIC (T. mentagrophytes)” value in experiment [2] is given as “A (≦1 μg/ml)”. Moreover, in experiment [1], the “MIC (T. rubrum)” value is “B (4 to 16 μg/ml)”. Regarding `CCc1cc(CC)n(-c2ccccc2O)n1` [compound 14], in experiment [1], the “MIC (T. rubrum)” value was “B (4 to 16 μg/ml)”. For the compound `Cc1cc(C)n(-c2cccc(O)c2O)n1` [compound 15], the “MIC (T. rubrum)” value in experiment [1] is on record as “C (16 to 32 μg/ml)”. Turning to `CCc1c(C)nn(-c2ccccc2O)c1C` [compound 17], the “MIC (T. mentagrophytes)” value in experiment [2] is listed as “A (≦1 μg/ml)”. In addition, the “MIC (T. rubrum)” value in experiment [1] is “A (≦2 μg/ml)”. Turning to `Cc1nn(-c2ccc(F)cc2O)c(C)c1C` [compound 18], the “MIC (T. rubrum)” value in experiment [1] was “B (4 to 16 μg/ml)”. For `Cc1nn(-c2cc(O)ccc2O)c(C)c1Cl` [compound 19], the “MIC (T. rubrum)” value in experiment [1] is reported as “C (16 to 32 μg/ml)”. The same measure, in the same setting: then `Cc1nn(-c2cc(F)ccc2O)c(C)c1C` [compound 20], with “D (>32 to 64 μg/ml)”. Regarding `Cc1nn(-c2ccc(F)cc2O)c(C)c1Cl` [compound 21], in experiment [2], the “MIC (T. mentagrophytes)” value is given as “A (≦1 μg/ml)”. For the same compound, in experiment [1], the “MIC (T. rubrum)” value was “B (4 to 16 μg/ml)”. As to `CCOC(=O)c1c(C)nn(-c2ccccc2O)c1C` [compound 22], the “MIC (T. rubrum)” value in experiment [1] is on record as “D (>32 to 64 μg/ml)”. For `COC(=O)CCc1c(C)nn(-c2ccccc2O)c1C` [compound 23], the “MIC (T. rubrum)” value in experiment [1] is listed as “D (>32 to 64 μg/ml)”. As to `CCCCc1c(C)nn(-c2ccccc2O)c1C` [compound 24], in experiment [2], the “MIC (T. mentagrophytes)” value is “A (≦1 μg/ml)”. In addition, the “MIC (T. rubrum)” value in experiment [1] is given as “C (16 to 32 μg/ml)”. As for `Cc1cc(C)n(-c2ccc(F)cc2O)n1` [compound 25], in experiment [1], the “MIC (T. rubrum)” value was “B (4 to 16 μg/ml)”.

Consider `Cc1cc(C)n(-c2ccc(Cl)cc2O)n1` [compound 26], for which the “MIC (T. mentagrophytes)” value in experiment [2] was “A (≦1 μg/ml)”. The “MIC (T. rubrum)” value in experiment [1] is reported as “A (≦2 μg/ml)”. With `Cc1cc(C)n(-c2ccc([N+](=O)[O-])cc2O)n1` [compound 28], the “MIC (T. rubrum)” value in experiment [1] is recorded as “C (16 to 32 μg/ml)”. `Cc1nn(-c2ccc(Cl)cc2O)c(C)c1C` [compound 30]: the “MIC (T. mentagrophytes)” value in experiment [2] was “A (≦1 μg/ml)”. The “MIC (T. rubrum)” value in experiment [1] was “A (≦2 μg/ml)”. Consider `Cc1cc(C)n(-c2ccc(N)cc2O)n1` [compound 31], for which, in experiment [1], the “MIC (T. rubrum)” value was “B (4 to 16 μg/ml)”. Turning to `Cc1nn(-c2ccc([N+](=O)[O-])cc2O)c(C)c1C` [compound 32], in experiment [1], the “MIC (T. rubrum)” value is on record as “B (4 to 16 μg/ml)”. Take `Cc1cc(C)n(-c2ccc(O)cc2O)n1` [compound 33]: the “MIC (T. rubrum)” value in experiment [1] was “A (≦2 μg/ml)”. In the case of `Cc1nn(-c2ccc(N)cc2O)c(C)c1C` [compound 34], the “MIC (T. rubrum)” value in experiment [1] is recorded as “B (4 to 16 μg/ml)”. As for `COC(=O)c1ccc(-n2nc(C)cc2C)c(O)c1` [compound 35], in experiment [1], the “MIC (T. rubrum)” value is reported as “C (16 to 32 μg/ml)”.

Regarding `Cc1cc(C)n(-c2c(N)cccc2O)n1` [compound 36], the “MIC (T. rubrum)” value in experiment [1] is reported as “D (>32 to 64 μg/ml)”. Regarding `Cc1cc(C)n(-c2ccc(C(=O)O)cc2O)n1` [compound 37], in experiment [1], the “MIC (T. rubrum)” value was “B (4 to 16 μg/ml)”. Regarding `Cc1cc(C)n(-c2ccc(C(=O)N(C)C)cc2O)n1` [compound 38], the “MIC (T. rubrum)” value in experiment [1] is on record as “B (4 to 16 μg/ml)”. As to `Cc1cc(C)n(-c2ccc(C(N)=O)cc2O)n1` [compound 39], the “MIC (T. rubrum)” value in experiment [1] is “C (16 to 32 μg/ml)”. Turning to `Cc1nn(-c2ccc(C(=O)O)cc2O)c(C)c1C` [compound 40], the “MIC (T. rubrum)” value in experiment [1] is “D (>32 to 64 μg/ml)”. Consider `Cc1nn(-c2ccc(C(N)=O)cc2O)c(C)c1C` [compound 41], for which the “MIC (T. rubrum)” value in experiment [1] was “D (>32 to 64 μg/ml)”.

For the compound `Cc1nn(-c2ccc(C(N)=O)cc2O)c(C)c1Cl` [compound 42], in experiment [1], the “MIC (T. rubrum)” value is recorded as “D (>32 to 64 μg/ml)”. Take `Cc1cc(C)n(-c2c(O)cccc2O)n1` [compound 43]: the “MIC (T. rubrum)” value in experiment [1] was “D (>32 to 64 μg/ml)”.

Turning to `Cc1ccc(-n2nc(C)cc2C)c(O)c1` [compound 44], the “MIC (T. mentagrophytes)” value in experiment [2] is on record as “A (≦1 μg/ml)”. The “MIC (T. rubrum)” value in experiment [1] is listed as “A (≦2 μg/ml)”. `COc1ccc(-n2nc(C)cc2C)c(O)c1` [compound 45]: the “MIC (T. mentagrophytes)” value in experiment [2] is “A (≦1 μg/ml)”. For the same compound, the “MIC (T. rubrum)” value in experiment [1] is reported as “A (≦2 μg/ml)”. Regarding `Cc1cc(C)n(-c2c(C)cccc2O)n1` [compound 46], the “MIC (T. rubrum)” value in experiment [1] is “D (>32 to 64 μg/ml)”.

Consider `Cc1cc(C)n(-c2ccc(CO)cc2O)n1` [compound 47], for which the “MIC (T. rubrum)” value in experiment [1] is listed as “B (4 to 16 μg/ml)”. Regarding `CNc1ccc(-n2nc(C)cc2C)c(O)c1` [compound 48], the “MIC (T. rubrum)” value in experiment [1] is “B (4 to 16 μg/ml)”.

Regarding `Cc1ccc(O)c(-n2nc(C)cc2C)c1` [compound 49], the “MIC (T. rubrum)” value in experiment [1] is reported as “D (>32 to 64 μg/ml)”. For `Cc1cc(C)n(-c2ccc(C(F)(F)F)cc2O)n1` [compound 50], the “MIC (T. rubrum)” value in experiment [1] is “B (4 to 16 μg/ml)”. As for `Cc1cc(C)n(-c2cccc(C)c2O)n1` [compound 51], in experiment [1], the “MIC (T. rubrum)” value is “D (>32 to 64 μg/ml)”.

On to `CCc1ccc(-n2nc(C)cc2C)c(O)c1` [compound 52], for which the “MIC (T. mentagrophytes)” value in experiment [2] was “A (≦1 μg/ml)”. For the same compound, in experiment [1], the “MIC (T. rubrum)” value was “A (≦2 μg/ml)”.

For the compound `Cc1nn(-c2ccccc2O)c(C)c1F` [compound 53], in experiment [1], the “MIC (T. rubrum)” value is reported as “B (4 to 16 μg/ml)”. With `Cc1cc(C)n(-c2ccc(Br)cc2O)n1` [compound 54], the “MIC (T. mentagrophytes)” value in experiment [2] was “A (≦1 μg/ml)”. In addition, the “MIC (T. rubrum)” value in experiment [1] is reported as “A (≦2 μg/ml)”. Regarding `Cc1nn(-c2ccc(Br)cc2O)c(C)c1Cl` [compound 55], the “MIC (T. mentagrophytes)” value in experiment [2] is reported as “A (≦1 μg/ml)”. Also, the “MIC (T. rubrum)” value in experiment [1] is recorded as “A (≦2 μg/ml)”.

As for `Cc1nn(-c2ccc(Br)cc2O)c(C)c1C` [compound 56], the “MIC (T. mentagrophytes)” value in experiment [2] is “A (≦1 μg/ml)”. Moreover, the “MIC (T. rubrum)” value in experiment [1] is given as “A (≦2 μg/ml)”. On to `CC(=O)Oc1ccc(-n2nc(C)cc2C)c(O)c1` [compound 57], for which the “MIC (T. rubrum)” value in experiment [1] was “B (4 to 16 μg/ml)”. Regarding `CC(=O)Oc1ccc(-n2nc(C)c(Cl)c2C)c(O)c1` [compound 58], the “MIC (T. rubrum)” value in experiment [1] was “A (≦2 μg/ml)”. As to `CC(=O)Oc1ccc(-n2nc(C)c(C)c2C)c(O)c1` [compound 59], the “MIC (T. rubrum)” value in experiment [1] is listed as “B (4 to 16 μg/ml)”.

Consider `Cc1nn(-c2ccc(O)cc2O)c(C)c1Cl` [compound 63], for which, in experiment [2], the “MIC (T. mentagrophytes)” value is “A (≦1 μg/ml)”. The “MIC (T. rubrum)” value in experiment [1] is given as “A (≦2 μg/ml)”.

The values are drawn from US20140030209A1, “TOPICAL LIQUID AGENT FOR THE TREATMENT OF DERMATOPHYTOSIS” (MEIJI SEIKA PHARMA CO., LTD., priority 2012, published 2014).
